Reference: US20190117637A1 (priority 2016, published 2019)

What was measured:
rats [1] = details: rat, in vivo
rats [2] = details: rat; pretreatment quetiapine 10 mg/kg i.p.; heroin 0.032 mg/kg/infusion i.v., five lever presses per infusion; FIG. 2

`COc1ccc2c3c1O[C@H]1C(=O)CC[C@@]4(O)[C@@H](C2)N(C)CC[C@]314` [oxycodone] was tested. Which “average tail flick latency” value (rats [1]) did it give?
The value was “about 7.3 seconds”.

And the “median tail flick latency” value (rats [1])?
Its value is ~5.8 s.

With `OCCOCCN1CCN(C2=Nc3ccccc3Sc3ccccc32)CC1` [quetiapine] as the molecule, how does the “self-administration (reinforcing effect) of heroin” value (rats [2]) read?
Its value is “decreased”.
